Data as given in patent US20040266766A1, “Selective urokinase inhibitors” (Wilex AG, priority 2001, published 2004).
Where a name gives a salt, the structure may show the parent alone. Read-outs that look alike come from different tables or passages of the source. One block for each compound: values may come before it.

Key:
urokinase (uPA) = target: T1, urokinase (uPA) (Homo sapiens, UniProt P00749); test: In vitro inhibition of urokinase (Ki according to Dixon, chromogenic substrate); format: biochemical
T1 construct: purchased Calbiochem-Novabiochem GmbH, Bad Soden, Germany
Method: In order to determine the inhibitory activity, 200 μl Tris buffer (0.05 mol/l containing the inhibitor, 0.154 mol/l NaCl, pH 8.0), 25 μl substrate (Pefachrome uPA, Pefachrome PL or Pefabloc TH in H2O; Pentapharm Ltd, Basle, Switzerland) and 50 μl urokinase (Calbiochem-Novabiochem GmbH, Bad Soden, Germany) or another appropriate protease e.g. plasmin, thrombin or FXa are incubated for 10 minutes at 30° C. After ca. 30 minutes and 30 cycles the absorption is determined at 405 nm by means of a microplate reader (Mediators PHL, Aureon Biosystems, Vienna, Austria). The Ki values were determined according to Dixon by linear regression using a computer program.

[1] = Oral bioavailability and plasma kinetics in mice (serum concentration); format: in vivo, Balb/c mice; details: mouse; for concentration at 20 min / concentration at 40 min / concentration at 60 min: female, Balb/c, serum, po, read-out: c in the serum 1st analysis; for concentration at 20 min: sample at 20 minutes; for concentration at 40 min: sample at 40 minutes; for concentration at 60 min: sample at 60 minutes; for c in the serum 1st analysis: 10 mg/kg i.v.
[2] = summary table, read-out: Ki uPA

- Ki (urokinase (uPA); read-out: Ki uPA): > 20 µM
SMILES: N=C(N)Nc1ccc(CNC(=O)CNC(=O)C(CO)NC(=O)NC23CC4CC(CC(C4)C2)C3)cc1 (stereo not drawn) [WX-C320, 1-Adamantyl-aminocarbonyl-(D)-Ser-Gly-(4-guanidinobenzyl)amide hydrochloride]

- Ki (urokinase (uPA); read-out: Ki uPA): > 20 µM
SMILES: N=C(N)Nc1ccc(CNC(=O)CNC(=O)C(CO)NC(=O)Nc2ccc3c(c2)OCO3)cc1 (stereo not drawn) [WX-C332, 3,4-Methylenedioxyphenyl-aminocarbonyl-(D)-Ser-Gly-(4-guanidinobenzyl)amide hydrochloride]

- Ki uPA (urokinase (uPA)): no inh. *)
SMILES: CC(=O)c1cccc(NC(=O)NC(CO)C(=O)NCC(=O)NCc2ccc(NC(=N)N)cc2)c1 (stereo not drawn) [WX-C314, 3-Acetylphenyl-aminocarbonyl-(D)-Ser-Gly-(4-guanidinobenzyl)amide hydrochloride]

- Ki (urokinase (uPA); read-out: Ki uPA): 1.4 µM
SMILES: CCOC(=O)c1cccc(NC(=O)NC(CO)C(=O)NCC(=O)NCc2ccc(NC(=N)N)cc2)c1 (stereo not drawn) [WX-C312, 3-Ethoxycarbonylphenyl-aminocarbonyl-(D)-Ser-Gly-(4-guanidinobenzyl)amide hydrochloride]

- Ki uPA (urokinase (uPA)): no inh. *)
SMILES: N=C(N)Nc1ccc(CNC(=O)CNC(=O)C(CO)NC(=O)Nc2cccc(Cl)c2)cc1 (stereo not drawn) [WX-C292, 3-Chlorophenyl-aminocarbonyl-(D)-Ser-Gly-(4-guanidinobenzyl)amide hydrochloride]

- Ki uPA (urokinase (uPA)): no inh. *)
SMILES: N=C(N)Nc1ccc(CNC(=O)CNC(=O)C(CO)NC(=O)Nc2ccccc2Cl)cc1 (stereo not drawn) [WX-C304, 2-Chlorophenyl-aminocarbonyl-(D)-Ser-Gly-(4-guanidinobenzyl)amide hydrochloride]

- Ki (urokinase (uPA); read-out: Ki uPA): > 20 µM
SMILES: CC(=O)c1ccc(NC(=O)NC(CO)C(=O)NCC(=O)NCc2ccc(NC(=N)N)cc2)cc1 (stereo not drawn) [WX-C330, 4-Acetylphenyl-aminocarbonyl-(D)-Ser-Gly-(4-guanidinobenzyl)amide hydrochloride]

- Ki (urokinase (uPA); read-out: Ki uPA): > 20 µM
SMILES: N=C(N)Nc1ccc(CNC(=O)CNC(=O)C(CO)NC(=O)Nc2cccc3ccccc23)cc1 (stereo not drawn) [WX-C328, 1-Naphthyl-aminocarbonyl-(D)-Ser-Gly-(4-guanidinobenzyl)amide hydrochloride]

- Ki (urokinase (uPA); read-out: Ki uPA): 0.16 µM
- Ki (urokinase (uPA); [2]): 0.16 µM
- concentration at 20 min ([1]; 30 mg/kg, 30 mg/kg oral): 200 ng/mL
- concentration at 40 min ([1]; 30 mg/kg, 30 mg/kg oral): 400 ng/mL
- concentration at 60 min ([1]; 30 mg/kg, 30 mg/kg oral): 100 ng/mL
- concentration at 20 min ([1]; 300 mg/kg, 300 mg/kg oral): 17000 ng/mL
- concentration at 40 min ([1]; 300 mg/kg, 300 mg/kg oral): 10700 ng/mL
- concentration at 60 min ([1]; 300 mg/kg, 300 mg/kg oral): 7000 ng/mL
- c in the serum 1st analysis ([1]; time of sample collection 0): 66.2 µg/mL
- c in the serum 1st analysis ([1]; time of sample collection 10): 18.3 µg/mL
- c in the serum 1st analysis ([1]; time of sample collection 30): 2.1 µg/mL
SMILES: CC1(C)C2CCC1(CS(=O)(=O)NC(CO)C(=O)NCC(=O)NCc1ccc(NC(=N)N)cc1)C(=O)C2 (stereo not drawn) [WX-C298, (+)-Camphor-10-sulfonyl-(D)-Ser-Gly-(4-guanidinobenzyl)amide hydrochloride]

- Ki (urokinase (uPA); read-out: Ki uPA): 2.1 µM
SMILES: N=C(N)Nc1ccc(NNC(=O)CNC(=O)[C@@H](CO)NS(=O)(=O)Cc2ccccc2)cc1 [WX-600, N-[N′-guanidino-phenyl)-hydrazinocarbonyl-methyl]-3-hydroxy-2-phenyl-methanesulfonylamino-propionamide hydrochloride]

- Ki (urokinase (uPA); read-out: Ki uPA): 0.45 µM
SMILES: CC1(C)C2CCC1(CS(=O)(=O)NC(CO)C(=O)NCC(=O)NCc1ccc(NC(=N)N)cc1)C(=O)C2 (stereo not drawn) [WX-C296, (−)-Camphor-10-sulfonyl-(D)-Ser-Gly-4-guanidinobenzyl)amide hydrochloride]

- Ki (urokinase (uPA); read-out: Ki uPA): 4.9 µM
SMILES: N=C(N)Nc1ccc(CNC(=O)CNC(=O)C(CO)NC(=O)Nc2ccc([N+](=O)[O-])cc2)cc1 (stereo not drawn) [WX-C342, 4-Nitrophenyl-aminocarbonyl-(D)-Ser-Gly-(4-guanidinobenzyl)amide hydrochloride]

- Ki (urokinase (uPA); read-out: Ki uPA): > 20 µM
SMILES: N=C(N)Nc1ccc(CNC(=O)CNC(=O)C(CO)NC(=O)Nc2ccccc2Br)cc1 (stereo not drawn) [WX-C322, 2-Bromophenyl-aminocarbonyl-(D)-Ser-Gly-(4-guanidinobenzyl)amide hydrochloride]

- Ki (urokinase (uPA); read-out: Ki uPA): 0.5 µM
SMILES: CCCCCCCCS(=O)(=O)NC(CO)C(=O)NCC(=O)NCc1ccc(NC(=N)N)cc1 (stereo not drawn) [WX-C302, n-Octyl-sulfonyl-(D)-Ser-Gly-(4-guanidinobenzyl)amide hydrochloride]

- Ki (urokinase (uPA); read-out: Ki uPA): 0.15 µM
SMILES: N=C(N)Nc1ccc(CNC(=O)CNC(=O)C(CN)NS(=O)(=O)Cc2ccccc2)cc1 (stereo not drawn) [WX-M6, Benzylsulfonyl-(D)-Dap-Gly-(4-guanidinobenzyl)amide bis-hydrochloride]

- Ki (urokinase (uPA); read-out: Ki uPA): > 20 µM
SMILES: COc1cc(NC(=O)NC(CO)C(=O)NCC(=O)NCc2ccc(NC(=N)N)cc2)cc(OC)c1OC (stereo not drawn) [WX-C308, 3,4,5-Tri-methoxyphenyl-aminocarbonyl-(D)-Ser-Gly-(4-guanidinobenzyl)amide hydrochloride]

- Ki (urokinase (uPA); read-out: Ki uPA): 2 µM
SMILES: N=C(N)Nc1ccc(CNC(=O)CNC(=O)C(CO)NC(=O)Nc2ccc(Oc3ccccc3)cc2)cc1 (stereo not drawn) [WX-C310, 4-Phenoxyphenyl-aminocarbonyl-(D)-Ser-Gly-(4-guanidinobenzyl)amide hydrochloride]

- Ki (urokinase (uPA); read-out: Ki uPA): 0.5 µM
SMILES: N=C(N)Nc1ccc(CNC(=O)CNC(=O)C(CNC(=O)OCc2ccccc2)NS(=O)(=O)Cc2ccccc2)cc1 (stereo not shown) [WX-M5, benzylsulfonyl-(D)-Dap(Z)-Gly-(4-guanidinobenzyl)amide hydrochloride]

- Ki (urokinase (uPA); read-out: Ki uPA): 13.1 µM
SMILES: CCOC(=O)c1ccc(NC(=O)NC(CO)C(=O)NCC(=O)NCc2ccc(NC(=N)N)cc2)cc1 (stereo not drawn) [WX-C336, 4-Ethyloxycarbonylphenyl-aminocarbonyl-(D)-Ser-Gly-(4-guanidinobenzyl)amide hydrochloride]

- Ki (urokinase (uPA); read-out: Ki uPA): > 20 µM
SMILES: N=C(N)Nc1ccc(CNC(=O)CNC(=O)C(CO)NC(=O)Nc2ccc(Br)cc2Br)cc1 (stereo not drawn) [WX-C338, 2,4-Dibromophenyl-aminocarbonyl-(D)-Ser-Gly-(4-guanidinobenzyl)amide hydrochloride]

- Ki (urokinase (uPA); read-out: Ki uPA): 4.1 µM
SMILES: COc1ccc(NC(=O)NC(CO)C(=O)NCC(=O)NCc2ccc(NC(=N)N)cc2)cc1 (stereo not drawn) [WX-C306, 4-Methoxyphenyl-aminocarbonyl-(D)-Ser-Gly-(4-guanidinobenzyl)amide hydrochloride]

- Ki (urokinase (uPA); read-out: Ki uPA): > 20 µM
SMILES: N=C(N)Nc1ccc(CNC(=O)CNC(=O)C(CO)NC(=O)Nc2cccc(Cl)c2Cl)cc1 (stereo not drawn) [WX-C334, 2,3-Dichlorophenyl-aminocarbonyl-(D)-Ser-Gly-(4-guanidinobenzyl)amide hydrochloride]

- Ki (urokinase (uPA); list of test substances of Example 17, read-out: Ki human uPA): 0.27 µM
- Ki (urokinase (uPA); read-out: Ki uPA): 0.27 µM
- Ki (urokinase (uPA); [2]): 0.27 µM
- concentration at 20 min ([1]; 30 mg/kg, 30 mg/kg oral): 200 ng/mL
- concentration at 40 min ([1]; 30 mg/kg, 30 mg/kg oral): 200 ng/mL
- concentration at 60 min ([1]; 30 mg/kg, 30 mg/kg oral): 200 ng/mL
- concentration at 20 min ([1]; 300 mg/kg, 300 mg/kg oral): 1500 ng/mL
- concentration at 40 min ([1]; 300 mg/kg, 300 mg/kg oral): 4600 ng/mL
- concentration at 60 min ([1]; 300 mg/kg, 300 mg/kg oral): 600 ng/mL
- c in the serum 1st analysis ([1]; time of sample collection 0): 94.4 µg/mL
- c in the serum 1st analysis ([1]; time of sample collection 10): 11.0 µg/mL
- c in the serum 1st analysis ([1]; time of sample collection 30): 1.3 µg/mL
SMILES: CCCCS(=O)(=O)NC(CO)C(=O)NCC(=O)NCc1ccc(NC(=N)N)cc1 (stereo not drawn) [WX-C300, n-Butyl-sulfonyl-(D)-Ser-Gly-(4-guanidinobenzyl)amide hydrochloride]

- Ki (urokinase (uPA); read-out: Ki uPA): > 20 µM
SMILES: N=C(N)Nc1ccc(CNC(=O)CNC(=O)C(CO)NC(=O)Nc2ccc3c(c2)OCCO3)cc1 (stereo not drawn) [WX-C326, 2,3-Dihydro-1,4-benzodioxin-6-yl-aminocarbonyl-(D)-Ser-Gly-(4-guanidinobenzyl)amide hydrochloride]

- Ki (urokinase (uPA); read-out: Ki uPA): 14.7 µM
SMILES: N=C(N)Nc1ccc(CNC(=O)CNC(=O)C(CO)NC(=O)Cc2ccc(O)c(O)c2)cc1 (stereo not drawn) [WX-571, 3,4-Dihydroxyphenyl-acetyl-(D)-Ser-Gly-(4-guanidinobenzyl)amide hydrochloride]
